# Tests used:
# [1] = Stability test of complexed and uncomplexed potassium clavulanate in artificial gastric juice (pH 1.2, 37° C.); type: physicochemical
# Procedure: Stability test of complexed and uncomplexed potassium clavulanate in artificial gastric juice (pH 1.2) at the temperature of 37° C.
# For the test the following samples were used:
# Medium: artificial gastric juice--aq. HCl/NaCl buffer, pH 1.2, according to USP XXII.
# Concentration of clavulanic acid (abbr. KA) in samples: 4 mg/ml.
# The samples 1 to 3 were dissolved under stirring in an artificial gastric juice (100 ml) thermostated at 37° C., at the concentration of 4 mg/ml with regard to the clavulanic acid. Subsequently, 100 μl aliquots were taken at 5 min intervals for analysis by the HPLC, until a more than 95% KA decomposition was found. The solution was stirred all the time at the temperature of 37° C. ±0.5° C.
# Separately, a series of ten 10 ml aliquots of KA-TA-β-CD suspension in a buffer of a pH of 1.2 (cone. of KA=4 mg/ml), which were constantly stirred during thermostating at 37° C., was prepared. At time intervals of 5 to 10 min, the individual aliquots were filtered (membrane filter 0.4 μm) and in the clear filtrate the concentration of clavulanic acid was determined by HPLC. The KA content at times up to 90 min of thermostating was noted.
# The results of measurements after 15, 30, 45, 60 and 90 min of thermostating the samples at 37° C. in a buffer at pH 1.2 are shown in following Table.
# [2] = penicillinic and cephalosporin class; cited from earlier work
# β-lactamases = conditions: cited from earlier work
# [3] = cited from earlier work
Compound,"remaining at 0.25 h ([1]; artificial gastric juice, 15 min thermostating, pH 1.2, 37° C., KA 4 mg/ml, read-out: KA (undecomp.) as to the initial KA conc. (100%) in samples)","remaining at 0.5 h ([1]; artificial gastric juice, 30 min thermostating, pH 1.2, 37° C., KA 4 mg/ml, read-out: KA (undecomp.) as to the initial KA conc. (100%) in samples)","remaining at 0.75 h ([1]; artificial gastric juice, 45 min thermostating, pH 1.2, 37° C., KA 4 mg/ml, read-out: KA (undecomp.) as to the initial KA conc. (100%) in samples)","time of 95% decomposition of clavulanic acid (t95%) ([1]; pH 1.2, 37° C. (FIG. 9))","time of 95% decomposition of clavulanic acid ([1]; conditions present in gastric juice, 37° C.)",effect in combination with β-lactam antibiotics [2],inhibition of β-lactamases (in words) (β-lactamases),solubility in water (in words) [3]
"O=C(O)[C@H]1/C(=C/CO)O[C@@H]2CC(=O)N21 [KK, potassium clavulanate]",18.1%,1.3%,0%,26 min,–,–,–,–
"O=C(O)[C@H]1/C(=C/CO)O[C@@H]2CC(=O)N21 [clavulanic acid, (2R,5R,Z)-3-(2-hydroxyethylidene)-7-oxo-4-oxa-1-azabicyclo[3.2.0]heptane-2-carboxylic acid]",–,–,–,–,26 min,synergistic effect,inhibitors of β-lactamases,very well soluble in water

# Reference: patent publication US5498788A, “Inclusion complexes of clavulanic acid and of potassium salts thereof with hydrophobic β-cyclodextrin derivatives a process for the preparation thereof” (LEK, tovarna farmacevtskih, priority 1992, dated 1996)
